Inhibition data for 35 molecules are collected here from patent publication US8901307B2, “Chemical compounds 251” (AstraZeneca AB, priority 2008, dated 2014).

Where a name gives a salt, the structure may show the parent alone. Read-outs that look alike come from different tables or passages of the source. A value given as a limit tells only on which side of the number the result lay.

For one test, the target named is T1, human His-PIM1 [2-313] (Homo sapiens, UniProt P11309).
T1 construct: purified human His-PIM1 [2-313] enzyme; His (N); purchased University of Dundee, Scotland; host or cells: baculovirus system
Briefly: PIM1 in-vitro mobility shift assay (Caliper LC3000, FL-Ahx-Bad phosphorylation). It counts as biochemical. Conditions: 1.5 h, read-out: PIM1 % I at 0.3 uM. In a few lines: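 Compound preincubated 20 min at 25 °C with 2.4 nM PIM1, 3.6 µM FL-Ahx-Bad peptide and 240 µM ATP (1.2× mix concentrations). Reaction started with 24 mM MgCl2 mix, run 90 min at 25 °C, EDTA-stopped. Phospho/unphospho peptide separated by microfluidic mobility shift; percent inhibition from ratiometric turnover.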

A further test concerns the target T2, human His-PIM2 [23-299] (Homo sapiens, UniProt Q9P1W9).
T2 construct: purified human His-PIM2 [23-299] enzyme; His (N); host or cells: E. coli
Briefly: PIM2 in-vitro mobility shift assay (Caliper LC3000, FL-Ahx-Bad phosphorylation). Particulars: 1.5 h; percent inhibition at 0.3 uM compound; read-out: PIM2 % I at 0.3 uM. It counts as biochemical.

Where [1] appears, read: percent inhibition at 0.3 uM compound.

T2 sequence (Q9P1W9 23-299): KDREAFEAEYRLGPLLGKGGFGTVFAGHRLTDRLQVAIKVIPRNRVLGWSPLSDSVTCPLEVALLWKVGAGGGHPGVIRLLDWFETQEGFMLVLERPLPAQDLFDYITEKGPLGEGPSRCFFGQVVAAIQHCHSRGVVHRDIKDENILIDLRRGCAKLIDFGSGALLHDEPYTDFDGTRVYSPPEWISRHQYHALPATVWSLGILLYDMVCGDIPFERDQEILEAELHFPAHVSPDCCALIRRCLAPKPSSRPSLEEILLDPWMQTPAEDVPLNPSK
T1 sequence (P11309 2-313): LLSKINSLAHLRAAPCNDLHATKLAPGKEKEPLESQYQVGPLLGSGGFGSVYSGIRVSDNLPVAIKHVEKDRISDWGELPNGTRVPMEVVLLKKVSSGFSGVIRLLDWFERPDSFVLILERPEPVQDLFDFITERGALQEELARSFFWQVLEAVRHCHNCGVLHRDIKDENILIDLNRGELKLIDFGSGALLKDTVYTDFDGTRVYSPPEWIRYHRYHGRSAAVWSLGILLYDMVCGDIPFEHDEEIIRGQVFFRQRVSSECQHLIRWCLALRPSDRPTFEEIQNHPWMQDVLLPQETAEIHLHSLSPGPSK

Regarding `CC(C)(C)N1CCN(c2c(Cl)cc(C(F)(F)F)cc2/C=C2\SC(=O)NC2=O)CC1` [Example 30], the inhibition at 0.3 µM at human His-PIM1 [2-313] (setting [1]) was determined as 90.8%; at human His-PIM2 [23-299], 15.6%.

Turning to `CN(C)[C@H]1CCN(c2c(F)cccc2C=C2SC(=O)NC2=O)C1` [Example 84N, (S)-5-(2-(3-(dimethylamino)pyrrolidin-1-yl)-3-fluorobenzylidene)thiazolidine-2,4-dione], the values for the inhibition at 0.3 µM at human His-PIM1 [2-313] (setting [1]) and at human His-PIM2 [23-299] were 92.8% and 81.4%, respectively.

As for `CC(C)(C)OC(=O)N1CCN(c2ccccc2/C=C2\SC(=O)NC2=O)CC1` [Example 58, (Z)-tert-butyl 4-(2-((2,4-dioxothiazolidin-5-ylidene)methyl)phenyl)piperazine-1-carboxylate], the inhibition at 0.3 µM on human His-PIM1 [2-313] (setting [1]) was determined as 16%; on human His-PIM2 [23-299] it was 7.1%.

Turning to `COc1cc(/C=C2\SC(=O)NC2=O)c(N2CCC(NCCCN)C2)cc1OC` (stereo not shown) [Example 126], the inhibition at 0.3 µM at human His-PIM1 [2-313] (setting [1]) and at human His-PIM2 [23-299] was more than 95% throughout.

Take `O=C1NC(=O)/C(=C/c2ccccc2N2CCN(C(=O)c3ccc(CN4CCNCC4)cc3)CC2)S1` [Example 109, (Z)-5-(2-(4-(4-(piperazin-1-ylmethyl)benzoyl)piperazin-1-yl)benzylidene)thiazolidine-2,4-dione hydrochloride]: the inhibition at 0.3 µM on human His-PIM1 [2-313] (setting [1]) stood at 64.2%; at human His-PIM2 [23-299], 65.8%.

Take `O=C1NC(=O)/C(=C/c2cccnc2N2CCNCC2)S1` [Example 89, (Z)-5-((2-(piperazin-1-yl)pyridin-3-yl)methylene)thiazolidine-2,4-dione hydrochloride]: the values for the inhibition at 0.3 µM at human His-PIM1 [2-313] (setting [1]) and at human His-PIM2 [23-299] were 48.4% and 21.5%, respectively.

As to `COc1cccc(/C=C2\SC(=O)NC2=O)c1N1C[C@@H](C)N[C@@H](C)C1` [Example 35, (Z)-5-(2-((3S,5R)-3,5-dimethylpiperazin-1-yl)-3-methoxybenzylidene)thiazolidine-2,4-dione], the inhibition at 0.3 µM on human His-PIM1 [2-313] (setting [1]) and on human His-PIM2 [23-299] was less than 5% throughout.

With `O=C1NC(=O)/C(=C/c2cc(C(F)(F)F)cc(Cl)c2N2CCN(Cc3ccccc3Cl)CC2)S1` [Example 18], the inhibition at 0.3 µM at human His-PIM1 [2-313] (setting [1]) and on human His-PIM2 [23-299] was less than 5% in each case.

With `COc1cc(/C=C2\SC(=O)NC2=O)c(N2CCC(NC(=O)CCN)C2)cc1OC` (stereo not shown) [Example 128], the figures for the inhibition at 0.3 µM at human His-PIM1 [2-313] (setting [1]) and at human His-PIM2 [23-299] were 81.2% and 49%, respectively.

Consider `O=C1NC(=O)/C(=C/c2n[nH]c3ccccc23)S1` [Example 68, (Z)-5-((1H-indazol-3-yl)methylene)thiazolidine-2,4-dione], for which the inhibition at 0.3 µM worked out at 41.9% at human His-PIM1 [2-313] (setting [1]) and 9% at human His-PIM2 [23-299].

Regarding `CCN(CC)CCOc1ccc(OC)cc1/C=C1\SC(=O)NC1=O` [Example 63, (Z)-5-(2-(2-(diethylamino)ethoxy)-5-methoxybenzylidene)thiazolidine-2,4-dione], the inhibition at 0.3 µM is 79.2% at human His-PIM1 [2-313] (setting [1]) and 21.5% on human His-PIM2 [23-299].

Turning to `CN(C)[C@H]1CCN(c2ccc(C(F)(F)F)cc2C=C2SC(=O)NC2=O)C1` [Example 84H, (S)-5-(2-(3-(dimethylamino)pyrrolidin-1-yl)-5-(trifluoromethyl)benzylidene)thiazolidine-2,4-dione], the inhibition at 0.3 µM at human His-PIM1 [2-313] (setting [1]) was more than 95%; on human His-PIM2 [23-299], 67%.

`COCCOc1cccc(/C=C2\SC(=O)NC2=O)c1N1CCC[C@@H](N)C1` [Example 122AA, (R,Z)-5-(2-(3-aminopiperidin-1-yl)-3-(2-methoxyethoxy)benzylidene)thiazolidine-2,4-dione hydrochloride]: the inhibition at 0.3 µM at human His-PIM1 [2-313] (setting [1]) and on human His-PIM2 [23-299] was more than 95% each time.

`O=C1NC(=O)/C(=C/c2cc(C(F)(F)F)cc(Cl)c2N2CCC(N3CCOCC3)CC2)S1` [Example 22]: the inhibition at 0.3 µM on human His-PIM1 [2-313] (setting [1]) came to 81.9%; at human His-PIM2 [23-299], 8.5%.

As for `CC(C)CN1CCN(c2c(Cl)cc(C(F)(F)F)cc2/C=C2\SC(=O)NC2=O)CC1` [Example 12], the results for the inhibition at 0.3 µM at human His-PIM1 [2-313] (setting [1]) and on human His-PIM2 [23-299] were 80.2% and less than 5%, respectively.

As for `O=C1NC(=O)/C(=C/c2cc(C(F)(F)F)cc(Cl)c2N2CCC(N3CCCC3)CC2)S1` [Example 10], the inhibition at 0.3 µM on human His-PIM1 [2-313] (setting [1]) is more than 95%; on human His-PIM2 [23-299] it was 50.1%.

With `O=C1NC(=O)/C(=C/c2cc(C(F)(F)F)cc(Cl)c2N2CCN(CCN3CCOCC3)CC2)S1` [Example 20], the inhibition at 0.3 µM on human His-PIM1 [2-313] (setting [1]) was determined as 86.5%; on human His-PIM2 [23-299], 19.1%.

Regarding `O=C1NC(=O)/C(=C/c2cccc(Cl)c2N2CCC[C@@H](NCCC(F)(F)F)C2)S1` [Example 149], the inhibition at 0.3 µM at human His-PIM1 [2-313] (setting [1]) is more than 95%; at human His-PIM2 [23-299] it was 75.4%.

Consider `COc1cc(N)c(/C=C2\SC(=O)NC2=O)cc1OC` [Example 152], for which the inhibition at 0.3 µM at human His-PIM1 [2-313] (setting [1]) worked out at 10.8%; at human His-PIM2 [23-299], 16.7%.

Consider `N[C@H]1CCN(c2c(Cl)cc(C(F)(F)F)cc2/C=C2\SC(=O)NC2=O)C1` [Example 5B], for which the inhibition at 0.3 µM at human His-PIM1 [2-313] (setting [1]) and on human His-PIM2 [23-299] was more than 95% throughout.

Regarding `COc1cc(/C=C2\SC(=O)NC2=O)c(N2CCC(N(C)C)C2)cc1OC` (stereo not shown) [Example 52, (5Z)-5-{2-[4-(dimethylamino)pyrrolidin-1-yl]-4,5-dimethoxybenzylidene}-1,3-thiazolidine-2,4-dione], the values for the inhibition at 0.3 µM on human His-PIM1 [2-313] (setting [1]) and on human His-PIM2 [23-299] were more than 95% and 93.5%, respectively.

With `NCCCN[C@H]1CCN(c2c(Cl)cccc2/C=C2\SC(=O)NC2=O)C1` [Example 125], the inhibition at 0.3 µM on human His-PIM1 [2-313] (setting [1]) and at human His-PIM2 [23-299] was more than 95% throughout.

Take `CN(C)C1CCN(c2c(Cl)cc(C(F)(F)F)cc2/C=C2\SC(=O)NC2=O)CC1` [Example 24]: the inhibition at 0.3 µM is more than 95% at human His-PIM1 [2-313] (setting [1]) and 44.3% on human His-PIM2 [23-299].

On to `COc1cc(/C=C2\SC(=O)NC2=O)c(N2CCC(NCCN)C2)cc1OC` (stereo not shown) [Example 111, (Z)-5-(2-(3-(2-aminoethylamino)pyrrolidin-1-yl)-4,5-dimethoxybenzylidene)thiazolidine-2,4-dione hydrochloride], for which the inhibition at 0.3 µM at human His-PIM1 [2-313] (setting [1]) and on human His-PIM2 [23-299] was more than 95% in each case.

Consider `NC(=O)NCC(=O)N[C@H]1CCN(c2c(Cl)cccc2/C=C2\SC(=O)NC2=O)C1` [Example 138], for which the values for the inhibition at 0.3 µM on human His-PIM1 [2-313] (setting [1]) and on human His-PIM2 [23-299] were 87.9% and 63.2%, respectively.

In the case of `COc1cc(/C=C2\SC(=O)NC2=O)ccc1OCCN1CCCCC1` [Example 59, (Z)-5-(3-methoxy-4-(2-(piperidin-1-yl)ethoxy)benzylidene)thiazolidine-2,4-dione], the inhibition at 0.3 µM at human His-PIM1 [2-313] (setting [1]) was less than 5%; at human His-PIM2 [23-299], 6.6%.

As for `COc1cc(/C=C2\SC(=O)NC2=O)c(N2CC[C@H](N)C2)cc1OC` [Example 101, (S,Z)-5-(2-(3-aminopyrrolidin-1-yl)-4,5-dimethoxybenzylidene)thiazolidine-2,4-dione hydrochloride], the inhibition at 0.3 µM on human His-PIM1 [2-313] (setting [1]) and on human His-PIM2 [23-299] was more than 95% in each case.

As for `N[C@H]1CCCN(c2c(Cl)cc(C(F)(F)F)cc2/C=C2\SC(=O)NC2=O)C1` [Example 1, (S,Z)-5-(2-(3-aminopiperidin-1-yl)-3-chloro-5-(trifluoromethyl)benzylidene)thiazolidine-2,4-dione trifluoroacetate], the inhibition at 0.3 µM at human His-PIM1 [2-313] (setting [1]) was more than 95%; on human His-PIM2 [23-299], 77.7%.

`CC(=O)N1CCN(c2ccccc2/C=C2\SC(=O)NC2=O)CC1` [Example 130, (5Z)-5-[2-(4-acetylpiperazin-1-yl)benzylidene]-1,3-thiazolidine-2,4-dione]: the results for the inhibition at 0.3 µM on human His-PIM1 [2-313] and on human His-PIM2 [23-299] were 66.2% and 45.5%, respectively.

As to `O=C1NC(=O)/C(=C/c2cc(C(F)(F)F)ccc2N2CCNCC2)S1` [Example 87, (Z)-5-(2-(piperazin-1-yl)-5-(trifluoromethyl)benzylidene)thiazolidine-2,4-dione hydrochloride], the inhibition at 0.3 µM at human His-PIM1 [2-313] (setting [1]) was more than 95%; on human His-PIM2 [23-299] it was 84.2%.

With `CN(C)[C@H]1CCN(c2c(Cl)cccc2/C=C2\SC(=O)NC2=O)C1` [Example 38, (S,Z)-5-(3-chloro-2-(3-(dimethylamino)pyrrolidin-1-yl)benzylidene)thiazolidine-2,4-dione], the inhibition at 0.3 µM was more than 95% on human His-PIM1 [2-313] (setting [1]) and 92.9% at human His-PIM2 [23-299].

Consider `NCc1ccc(CN[C@@H]2CCCN(c3c(Cl)cccc3/C=C3\SC(=O)NC3=O)C2)cc1` [Example 122R, (R,Z)-5-(2-(3-(4-(aminomethyl)benzylamino)piperidin-1-yl)-3-chlorobenzylidene)thiazolidine-2,4-dione hydrochloride], for which the inhibition at 0.3 µM at human His-PIM1 [2-313] (setting [1]) is more than 95%; at human His-PIM2 [23-299], 89.6%.

Consider `NCCC(=O)N1CCCN(c2ccccc2/C=C2\SC(=O)NC2=O)CC1` [Example 105, (Z)-5-(2-(4-(3-aminopropanoyl)-1,4-diazepan-1-yl)benzylidene)thiazolidine-2,4-dione hydrochloride], for which the inhibition at 0.3 µM at human His-PIM1 [2-313] (setting [1]) is more than 95%; on human His-PIM2 [23-299], 92.4%.

As for `N[C@H]1CCN(c2c(/C=C3\SC(=O)NC3=O)cccc2OCC(F)(F)F)C1` [Example 122Z, (S,Z)-5-(2-(3-aminopyrrolidin-1-yl)-3-(2,2,2-trifluoroethoxy)benzylidene)thiazolidine-2,4-dione hydrochloride], the inhibition at 0.3 µM on human His-PIM1 [2-313] (setting [1]) and on human His-PIM2 [23-299] was more than 95% throughout.

With `O=C1NC(=O)/C(=C/c2cc(C(F)(F)F)ccc2N2CCN(C(=O)C3CCCNC3)CC2)S1` (stereo not shown) [Example 92, (Z)-5-(2-(4-(piperidine-3-carbonyl)piperazin-1-yl)-5-(trifluoromethyl)benzylidene)thiazolidine-2,4-dione hydrochloride], the inhibition at 0.3 µM at human His-PIM1 [2-313] (setting [1]) was more than 95%; at human His-PIM2 [23-299], 81.5%.
